Measured values from patent US20240101584A1, “TARGETED DELIVERY OF 1,2,4,5 TETRAOXANE COMPOUNDS AND THEIR USES” (Westlake University, priority 2021, published 2024).
Read-outs that look alike come from different tables or passages of the source.

Key:
[1] = tested on: MCF7; assay: Viability IC50, MCF7 cells; type: cell-based; settings: Homo sapiens, Table 12a
[2] = tested on: MDA-MB-231 cells; assay: MTT viability assay, MDA-MB-231 cells; type: cell-based; settings: for IC50: Homo sapiens; for fold more potent than FINO2 in eradicating MDA-MB-231 cells: comparator FINO2; for fold more cytotoxic than OZ439 on MDA-MB-231: comparator OZ439 (literature)
Method: (§1) The anticancer activities of the exemplary compounds listed in Example 1 were tested against human cervix Hela cells, mammary breast cancer MDA-MB-231 cells, human hepatocellular HepG2 cells, human colorectal HCT116 cells, mammary ductal T47D cells, non-cancerous NIH3T3 cells, dog's kidney MDCK cells, and mouse brain bEnd.3 cells, respectively.

[3] = tested on: NIH3T3; assay: CellTiter-Glo viability, NIH3T3 cells (Table 14); type: cell-based; settings: Mus musculus, 48 hrs, n = 3
[4] = tested on: HEK293 cells; assay: MTT viability assay, HEK293 cells; type: cell-based; settings: Homo sapiens, HEK293, 48 h incubation, mean, n = 3, read-out: IC50 against HEK293 cells
[5] = tested on: MDA-MB-231 cells; assay: Ferroptosis inhibitor rescue (Fer-1, liproxstatin-1) in MDA-MB-231 cells; type: cell-based; settings: 24 h; for effect of Fer-1 on MDA-MB-231 cell death: Fer-1 50 μM
Method: FIG. 8A is a bar graph showing the effect of Fer-1 (50 μM) on MDA-MB-231 cells treated with compounds 37b, 37a, and 30b, respectively, at the indicated concentrations for 24 h. […], **P≤0.01, ***P≤0.001 versus non-pretreated cells, N.S., no statistically significant change. Data represent mean±SD, n=3 biologically independent samples. All P values were determined using two-tailed Student's t-test.
FIG. 8B is a bar graph showing the effect of Fer-1 (50 μM) on MDA-MB-231 cells treated with compounds 6b, 48, 30a, and 37f, respectively, at the indicated concentrations for 24 h. *P≤0.01, **P≤0.002, ***P≤0.001 versus non-pretreated cells. Data represent mean±SD, n=3 biologically independent samples. FIG. 8C is a bar graph showing the effect of Fer-1 and DFO on MDA-MB-231 cells treated with compounds 56 and 53, respectively, at the indicated concentrations for 24 h. *P≤0.01, **P≤0.002, ***P≤0.001 versus non-pretreated cells. All P values were determined using two-tailed Student's t-test.
FIG. 9 is a bar graph showing the effect of liproxstatin ([…]) on MDA-MB-231 cells treated with compounds 48 and 37b, respectively, at the indicated concentrations for 24 h. **P≤0.01 versus non-pretreated cells. Data represent mean±SD, n=3 biologically independent samples. All P values were determined using two-tailed Student's t-test.
Fer-1 was used to investigate the cell death pathway induced by the compounds described herein. Liproxstatin-1 was used to further confirm whether 48 and 37b triggered off ferroptosis in MDA-MB-231 cells.

[6] = tested on: MDA-MB-231 xenograft tumors; assay: Mouse xenograft breast tumors (MDA-MB-231); type: in vivo, Nude mice; settings: for histopathological observations of liver, heart, kidney, spleen and lungs: H&E staining, compared to the controls
Method: FIG. 12A is a graph showing the tumor volume of xenograft tumors versus time after s.c. injection of DMSO, PTX, compound 37b, or compound 48. Nude mice were injected s.c. with MDA-MB-231 cells (10^6) and randomly allocated to one of the six treatment groups (n=5): (i) DMSO, (ii) Paclitaxel (PTX), 5 mg/kg, (iii) compound 37b, 5 mg/kg, (iv) compound 37b, 10 mg/kg, (v) compound 48, 5 mg/kg, or (vi) compound 48, 10 mg/kg. When control animals (DMSO) began to appear tumor ulceration (25 days), all animals in the experiment were sacrificed and photographed.
FIG. 12B are photographs of the tumor from sacrificed animals of different treatment groups after 25 days. FIG. 12C is a graph showing the tumor weight of xenograft tumors versus time after s.c. injection of DMSO, PTX, compound 37b, or compound 48. Data are shown as mean±SEM. * P≤0.05 versus DMSO group. FIG. 12D are photographs showing the morphological observation of mice tissue treated with DMSO, paclitaxel, compound 37b, or compound 48 with H&E staining on heart, liver, kidney, lungs, and spleen tissues (200×).

[7] = tested on: HepG2 cells; assay: MTT viability assay, HepG2 cells; type: cell-based, human
Method: as §1

[8] = tested on: HeyA8 cells; assay: CellTiter-Glo viability, adherent HeyA8 ovarian cancer cells; type: cell-based; settings: HEY A8; adherent cancer cells; CellTiter-Glo, 48 hrs, n = 3
[9] = tested on: T47D cells; assay: MTT viability assay, T47D cells; type: cell-based; settings: for IC50: Homo sapiens, T47D
Method: as §1

[10] = tested on: bEnd.3 cells; assay: MTT viability assay, bEnd.3 cells; type: cell-based, mouse; settings: Mus musculus, BEND3, 48 h incubation, mean, n = 3, read-out: IC50 against bEnd.3 cells
Method: as §1

[11] = tested on: Jurkat cells; assay: MTT viability assay, Jurkat cells; type: cell-based; settings: Homo sapiens, 48 h incubation, mean, n = 3, read-out: IC50 against Jurkat cells
[12] = tested on: HEY A8 cells; assay: Protective effect of DFO and Fer-1 on adherent HEY A8 cells; type: cell-based; settings: 24 h treatment
Method: FIG. 4 is a bar graph showing the protective effect of DFO and Fer-1 on HeyA8 cancer cells after treatment with compound 48 for 24 h. *P≤0.01, ***P≤0.001 versus non-pretreated group. Data represent mean±SD, n=3 biologically independent samples. All P values were determined using two-tailed Student's t-test.

[13] = tested on: HL-60 cells; assay: MTT viability assay, HL-60 cells; type: cell-based; settings: for IC50: Homo sapiens, HL-60
[14] = MDA-MB-231, Table 12b, read-out: IC50 MDA-MB-231
[15] = MTT, 48 h incubation, mean, n = 3, read-out: IC50 against T47D cells

Structure (SMILES)	IC50 [1] [nM]	IC50 [2, 14] [nM]	fold more potent than FINO2 in eradicating MDA-MB-231 cells [2]	fold more cytotoxic than OZ439 on MDA-MB-231 [2] [fold]	IC50 [3] [nM]	effect of liproxstatin-1 pretreatment on MDA-MB-231 cell death [5]	effect of Fer-1 on MDA-MB-231 cell death [5]	histopathological observations of liver, heart, kidney, spleen and lungs [6]	IC50 [8] [nM]	IC50 [9, 15] [nM]	IC50 ([9]; Table 12b, read-out: IC50 T47D) [nM]	selectivity index (IC50 of NIH3T3 divided by IC50 on T47D) ([9]; Table 12b, value in bracket)	further results
CC(C)(C)C1CCC2(CC1)OOC1(CCC(OC(=O)NCCC[P+](c3ccccc3)(c3ccccc3)c3ccccc3)CC1)OO2.[Br-] (stereo not shown) [Compound 37b, (3-((((12-(tert-butyl)-7,8,15,16-tetraoxadispiro[5.2.59.26]hexadecan-3-yl)oxy)carbonyl)amino)propyl)triphenylphosphonium bromide]	2400 ± 1700	400 ± 50	≥ 25 fold	64	4600 ± 1900	prevented the cell death	subverted MDA-MB-231 cell death	no histological alterations	1400 ± 70	620	600 ± 100	(>7.6)	selectivity index (IC50 of NIH3T3 divided by IC50 on MDA-MB-231) ([2]; Table 12b, value in bracket): (>11.5); fold more cytotoxic to MDA-MB-231 cells than OZ277 ([2]; comparator OZ277): 87 fold; IC50 [4]: 1600 nM; tumor growth compared with vehicle control ([6]; 10 mg/kg, MDA-MB-231 xenograft, 25 days): effective in inhibiting tumor growth; IC50 ([7]; Homo sapiens, HepG2, MTT, 48 h incubation, mean, n = 3, read-out: IC50 against HepG2 cells): 700 nM; fold more cytotoxic than RKA182 for HepG2 cells ([7]; comparator RKA182): 36 fold; IC50 [10]: 5200 nM
CC(C)(C)C1CCC2(CC1)OOC1(CCC(OC(=O)NCCC[N+](C)(Cc3ccccc3)Cc3ccccc3)CC1)OO2.[I-] (stereo not shown) [Compound 48, N,N-dibenzyl-3-((((12-(tert-butyl)-7,8,15,16-tetraoxadispiro[5.2.59.26]hexadecan-3-yl)oxy)carbonyl)amino)-N-methylpropan-1-aminium iodide]	8700 ± 4100	2400 ± 700	at least 4 fold	10	29000 ± 5700	prevented the cell death	subverted MDA-MB-231 cell death	no histological alterations	2300 ± 700	1700	1700 ± 300	(>17)	IC50 ([2]; MDA-MB-231, 48 h, MTT, 48 h incubation, mean, n = 3, read-out: IC50 against MDA-MB-231 cells): < 4000 nM; IC50 ([2]; MDA-MB-231, 48 h, Table 13, experimental data, MTT, 48 hrs, n = 3, read-out: IC50 MDA-MB-231): 2400 ± 700 nM; selectivity index (IC50 of NIH3T3 divided by IC50 on MDA-MB-231) ([2]; Table 13, value in bracket): (>12); IC50 [11]: 1000 nM; effect of DFO or Fer-1 pretreatment on induced cell death, adherent HEY A8 cells [12]: reversed the cell death; tumor size ([6]; 5 mg/kg and 10 mg/kg, MDA-MB-231 xenograft, 25 days): reduced the tumor size; abnormal behavior or weight loss during treatment period ([6]; MDA-MB-231 xenograft mice, entire treatment period): no abnormal behavior or weight loss; IC50 ([13]; MTT, 48 h incubation, mean, n = 3, read-out: IC50 against HL-60 cells): 1200 ± 900 nM; IC50 ([13]; Table 12b, read-out: IC50 HL-60): 1200 ± 900 nM; IC50 ([13]; Table 13, experimental data, MTT, 48 hrs, n = 3, read-out: IC50 HL-60): 1200 ± 900 nM; selectivity index (IC50 of NIH3T3 divided by IC50 on HL-60) ([13]; Table 13, value in bracket): (>24); fold more cytotoxic to HL-60 cells than OZ439 ([13]; comparator OZ439): at least 9 fold; fold more potent than RKA182 in HL-60 cells ([13]; comparator RKA182): 9 fold; IC50 ([9]; Table 13, experimental data, MTT, 48 hrs, n = 3, read-out: IC50 T47D): 1700 ± 300 nM; selectivity index (IC50 of NIH3T3 divided by IC50 on T47D) ([9]; Table 13, value in bracket): (>17)
